Results: patent US20240316053A1, “USE OF FOLATE DERIVATIVE IN PREPARATION OF DRUG FOR TREATING CONTACT LENS DISCOMFORT AND DRY EYE” (LIANYUNGANG JINKANG HEXIN PHARMACEUTICAL CO., LTD., priority 2021, published 2024)

Key:
[1] = test system: symptomatic contact lens wearers; experiment: Follow-up of degree of discomfort of wearing contact lenses; format: in vivo, human; conditions: group A (n=4), oral 5 mg calcium salt of 6S-5-methylterahydrofolic acid/tablet every day, contact lenses worn after 3 days
Method: A total of 10 adults suffering from contact lens discomfort were included in the study. Among them, 8 felt uncomfortable when wearing contact lenses, and 2 were asymptomatic contact lens wearers. The contact lenses worn by the participants were all silicone hydrogel-based contact lenses. All the participants were in good health. The symptoms and severity of eye discomfort were evaluated by the ocular surface disease index (OSDI), and whether there were symptoms such as inflammation in the eyes was checked by an optometrist.
(§1) The symptomatic contact lens wearers were divided into 2 groups, that is, group A (n=4) and group B (n=4). The asymptomatic contact lens wearers were assigned to group C The participants in each group didn't wear contact lenses for 24 hours, and then the tears were collected. Dietary supplements containing 5 mg calcium salt of 6S-5-methylterahydrofolic acid/tablet were orally taken by the participants in group A every day. After 3 days, the participants in each group began to wear contact lenses, and the tears were collected after 6 hrs. The contents of IL-2, IL-6, IL-17, and TNF-α were detected (ELISA method). The participants in each group were followed up to determine the degree of discomfort of wearing contact lenses.

[2] = test system: IL-17; experiment: Inflammatory factors on ocular surface of mice with chronic dry eye (ELISA); format: in vivo; conditions: Example 3, 0.5% eye drop, cornea, conjunctiva and draining lymph node, FIG. 6
Method: (§2) The experiment was divided into 3 groups. 20 mice with chronic dry eye in Example 2 were divided into a 5-methylterahydrofolic acid group (group A, n=10), and an arginine group (group B, n=10). 4 normal mice were taken as the control group. Each eye of the mice in group A was dripped with 5 μL of 5-methylterahydrofolic acid eye drop every day, each eye of the mice in group B was dripped with 5 μL of 0.5% arginine eye drop every day, and each eye of the mice in group C was dripped with 5 μL of a phosphate buffer every day. Tears were collected on the 3rd, 5th, 7th and 10th day after treatment, and the secretion of tears was detected. On the 10th day after treatment, the cornea of the mice in each group were stained with fluorescein.
After treatment, the animals were euthanized, and the eye tissues such as cornea, lacrimal gland and meibomian gland were taken out and washed in PBS. The cornea, conjunctiva and draining lymph node were collected and stored in cold sterile PBS at −80° C. The samples were homogenized and centrifuged on ice. The levels of […], IL-17 and IL-6 in the supernatant were determined by ELISA kit (Raybiotech).

[3] = test system: IL-17; experiment: IL-17 content in tears of contact lens wearers (ELISA); format: in vivo, human; conditions: symptomatic wearers, oral 5 mg/tablet daily, tears collected after 6 hrs of lens wear, FIG. 1
Method: as §1

[4] = test system: mice with chronic dry eye; experiment: Corneal fluorescein staining in mice with chronic dry eye; format: in vivo; conditions: 10th day after treatment
Excerpt: It can be seen that a suitable animal model of dry eye is very important, and it is impossible to show the true state of dry eye or contact lens discomfort only by destroying the lacrimal gland or modeling with hypertonic saline. The mouse model of dry eye constructed under specific environmental conditions is closest to the real situation. 120 female BALB/c mice aged 8-12 weeks were placed in an isolated and sealed cage with an opening on the top. Air dried through anhydrous CaSO4 was pumped into the cage by an air pump, where the air humidity RH=19.5%±5%, the flow rate was 15 L/min, and the temperature was 21-23° C. The mice in the dry and windy environment were taken out on the 5th, 15th and 30th day respectively. The production of tears was measured by phenol red thread test, and compared with that of the mice raised in standard cages in normal environment. Meanwhile, the cornea of the mice were stained with fluorescein, and the punctate staining was recorded in the cornea.
as §2
The experiment was divided into 4 groups. […] Tears were collected on the 3rd, 5th, 7th and 10th day after treatment, and the secretion of tears was detected. […]

[5] = test system: TNF-α; experiment: Semi-quantitative RT-PCR in ipsilateral trigeminal ganglion of mice with chronic dry eye; format: in vivo; conditions: Example 3, 0.5% eye drop, FIG. 7
Method: as §2
(§3) The ipsilateral trigeminal ganglion and trigeminal trunk of the eye of the mice were dissected quickly on ice, immediately frozen with liquid nitrogen, and stored at −80° C. RNA was extracted from ipsilateral trigeminal ganglion and trigeminal trunk by using NucleoSpin RNA purification II kit (NucleoSpin RNAS, Germany), and PCR amplification was carried out with mouse-specific cDNAs for matrix metalloproteinases MMP-9, MMP-2, and TNF-α. For each primer, the reaction was stopped after 24, 28, 32, 36, or 40 cycles, so as to ensure that the PCR products were within the linear range of the amplification curve, and semi-quantitative RT-PCR for the expression of related genes was realized.

[6] = test system: MMP-2; experiment: as above; format: in vivo; conditions: Example 3, 0.5% eye drop, FIG. 7
Method: as §2, §3

[7] = test system: MMP-9; experiment: as above; format: in vivo; conditions: Example 3, 0.5% eye drop, FIG. 7
Method: as §2, §3

[8] = Stability in water; format: physicochemical
[9] = Example 3, 0.5% eye drop, 5 μL per eye every day, FIG. 5

CN1c2c(nc(N)[nH]c2=O)NCC1CNc1ccc(C(=O)N[C@@H](CCC(=O)O)C(=O)O)cc1 (some centres unmarked) [5-methylterahydrofolic acid]
participants saying that the contact lens discomfort almost disappears [1]: 3 participants | participants thinking that the effect is not significant [1]: 1 case | IL-17 inflammatory factor on ocular surface [2]: can significantly reduce IL-17 inflammatory factor | level of IL-17 in tears [3]: can reduce the level of IL-17 in tears | corneal injury (fluorescein staining) [4, 9]: can improve the corneal injury with a significant difference from the baseline state | TNF-α gene expression in trigeminal nerve [5]: a certain inhibitory effect on TNF-α | MMP-2 gene expression in trigeminal nerve [6]: can significantly inhibit the MMP-2 gene expression | MMP-9 gene expression in trigeminal nerve [7]: not on MMP-9 significantly

CN1c2c(nc(N)[nH]c2=O)NC[C@@H]1CNc1ccc(C(=O)N[C@@H](CCC(=O)O)C(=O)O)cc1.N=C(N)NCCC[C@H](N)C(=O)O [arginine 5-methylterahydrofolate, arginine 6S-5-methylterahydrofolate]
corneal injury (fluorescein staining) ([4]; Example 4, eye drops, FIG. 9): can improve the corneal injury, with a significant difference from the baseline state | stability in water [8]: very poor

N=C(N)NCCC[C@H](N)C(=O)O [arginine, reference compound]
corneal injury (fluorescein staining) [4, 9]: can not significantly improve the ocular surface damage
